US20130090355A1, “CHEMICAL AGENTS FOR THE PREVENTION OF INHIBITION OR TUMOR METASTASIS” (ALBERT EINSTEIN COLLEGE OF MEDICINE OF YESHIVA UNIVERSITY, priority 2010, published 2013)
Several values for one entry are separate records, joined by “and”; a condition that tells them apart may be missing. Equal values may be shown once. Entries after “also recorded” stand apart in the source; their conditions may differ. Read-outs that look alike come from different tables or passages of the source.

What was measured:
C3R/C81S/C86S S100A4 = C3R/C81S/C86S S100A4 (Homo sapiens, UniProt P26447, C3R/C81S/C86S); assay: Myosin-IIA binding to C3R/C81S/C86S S100A4
[1] = molecular target: S100A4/myosin-IIA interaction (Homo sapiens, UniProt P26447); assay: Fluorescence polarization assay monitoring the S100A4/myosin-IIA interaction with FITC-MIIA^1908-1923 peptide; format: binding
From the text: An agent that prevents or inhibits the interaction between S100A4 and myosin-IIA may be determined by any method known in the art. For example, a fluorescence polarization assay that monitors the S100A4/myosin-IIA interaction using a fluorescein-tagged myosin-IIA peptide that comprises the minimal S100A4 binding site may be used as described in U.S. application Ser. No. 11/989,901, herein included in full.
A fluorescence polarization assay was developed that monitors the S100A4/myosin-IIA interaction using a fluorescein-tagged myosin-IIA peptide that comprises the minimal S100A4 binding site (FITC-MIIA^1908-1923) (21, 24). […] In collaboration with the Rapid Access to NCI Discovery Resources (R•A•N•D) program, the fluorescence polarization assay was used to screen the LOPAC (1280 compounds) and Maybridge (14,320 compounds) chemical libraries to identify compounds that disrupt the S100A4/myosin-IIA interaction.
EC50 values were determined from sixteen concentration titrations.

MDA-MB-231 cells [2] = assay: MTT cell proliferation / growth inhibition assay; details: for MTT Assay death: MDA-MB-231, 24 hrs
Description: However, all compounds were tested in a cell proliferation assay to identify cytotoxic compounds and determine compound concentrations that can be used to examine effects on motility and invasion.
EC50 values were determined from sixteen concentration titrations. Growth inhibition of MDA-MB-231 cells, which express high levels of S100A4, was examined in a 96-well plate MTT assay at eight drug concentrations after treatment for 24 hrs.

MDA-MB-231 cells [3] = assay: Boyden chamber assay of serum-stimulated chemotaxis; format: cell-based; details: Homo sapiens; MDA-MB-231 chemotaxis towards serum (5% FBS), 24 hr; read-out: EC50 inhibition of serum-stimulated migration
Description: FIG. 4. Boyden chamber assay examining the effects of lead compounds on MDA-MB-231 chemotaxis. Cells were serum starved for 5 hrs and plated into the upper chamber of a transwell in serum-free medium. Complete medium (5% FBS) was added to the lower chamber and the cells were allowed to migrate for 24 hr. Cells that penetrated the filter were stained with DAPI and quantified by fluorescence microscopy using 10 fields per filter.
As proof-of-principle that S100A4 inhibitors affect the motile and invasive capabilities of carcinoma cells, cell migration assays examining the ability of NSC 5069 and XAX 00168 to inhibit chemotaxis of MDA-MB-231 cells towards serum in a Boyden chamber assay were initiated (FIG. 4). Both NSC 5069 and XAX 00168 inhibit serum-stimulated migration to varying extents with EC50 values of approximately 40 and 20 μM for NSC 5069 and XAX 00168, respectively.

wild-type S100A4 = wild-type S100A4 (Homo sapiens, UniProt P26447); assay: Mass spectrum of wild-type S100A4 after treatment with compound (covalent modification)
From the text: (§1) FIG. 3A-3D. Mass spectrum of wild-type S100A4 (A) and following treatment with NSC 95397 (B). Mass spectrum of C81S/C86S S100A4 (C) and following treatment with NSC 95397 (D).

C81S/C86S S100A4 = C81S/C86S S100A4 (Homo sapiens, UniProt P26447, C81S/C86S); assay: Mass spectrum of C81S/C86S S100A4 after treatment with compound (covalent modification); details: Cys81 and Cys86 substituted with serine
From the text: as §1

[4] = read-out: EC50 (inhibition of the S100A4/myosin-IIA interaction)
[5] = Table 1, sixteen concentration titrations, read-out: EC50

S100A4/myosin-IIA interaction, sequence (P26447 whole entry): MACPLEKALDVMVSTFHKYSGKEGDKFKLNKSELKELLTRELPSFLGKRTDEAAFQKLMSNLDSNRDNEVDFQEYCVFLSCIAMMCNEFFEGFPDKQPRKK
C81S/C86S S100A4, sequence (P26447 whole entry C81S/C86S, one chain of several): as the sequence (P26447 whole entry) above, with C81S, C86S counted along it
C3R/C81S/C86S S100A4, sequence (P26447 whole entry C3R/C81S/C86S, one chain of several): as the sequence (P26447 whole entry) above, with C3R, C81S, C86S counted along it
wild-type S100A4, sequence (P26447 whole entry): as the sequence (P26447 whole entry) above

For `CSCC[C@H](NC(=O)[C@H](C)NC(=O)[C@H](CC(=O)O)NC(=S)Nc1ccc2c(c1)C(=O)OC21c2ccc(O)cc2Oc2cc(O)ccc21)C(=O)N[C@@H](CC(N)=O)C(=O)N[C@@H](CCCNC(=N)N)C(=O)N[C@@H](CCC(=O)O)C(=O)N[C@H](C(=O)N[C@@H](CO)C(=O)N[C@@H](CO)C(=O)N[C@@H](CC(C)C)C(=O)N[C@@H](CCCCN)C(=O)N[C@@H](CC(N)=O)C(=O)N[C@@H](CCCCN)C(=O)N[C@@H](CC(C)C)C(=O)N[C@@H](CCCNC(=N)N)C(=O)N[C@@H](CCCNC(=N)N)C(=O)O)C(C)C` [FITC-MIIA^1908-1923], the myosin-IIA binding (C3R/C81S/C86S S100A4) was “undetectable”.
With `CSc1sc(C(=O)NN)cc1-c1nc(C)cs1` [Maybridge KM03663, 5-methylsulfanyl-4-(4-methyl-1,3-thiazol-2-yl)thiophene-2-carbohydrazide] the EC50 [1, 4] was 38 to 46 µM and the “MTT Assay death” value (MDA-MB-231 cells [2]; at 150 μM) was 100% death at 150 μM.
`Cc1oc(-c2ccc(Cl)cc2)cc1C(=O)/C(C#N)=C/c1ccccc1` [Maybridge SP00172, 2-{[5-(4-chlorophenyl)-2-methyl-3-furyl]carbonyl}-3-phenylacrylonitrile] was tested, and the EC50 [1, 4] was 38 to 46 µM and the “MTT Assay death” value (MDA-MB-231 cells [2]; at 50 μM) was 100% death at 50 μM.
With `O=C1NC(=S)S/C1=C\c1cc([N+](=O)[O-])ccc1Sc1ccc(C(F)(F)F)cn1` [Maybridge XAX00168, 5-(5-nitro-2{[5-(trifluoromethyl)-2-pyridyl]thio}benzylidene)-2-thioxo-1,3-thiozolan-4-one] the EC50 [1, 5] was 46 µM, the EC50 [1, 4] was 38 to 46 µM and 46 µM and the EC50 (MDA-MB-231 cells [3]) was roughly 20 µM. For the same compound, the GI50 (MDA-MB-231 cells [2]; Homo sapiens, MDA-MB-231) was 190 µM and the IC50 (MDA-MB-231 cells [2]; Homo sapiens, MDA-MB-231, 24 h, read-out: MTT Assay IC50) was 190 µM.
For `O=C(O)CC1OCC=C2CN3CCC45C6=CC(=O)C(=O)C([N+](=O)[O-])=C6NC4C1C2CC35` (stereo not drawn) [NSC5069, Cacotheline], the EC50 [1, 5] was 19 µM, the EC50 [1, 4] was 19 µM and the EC50 (MDA-MB-231 cells [3]) was roughly 40 µM. The “MTT Assay toxicity” value (MDA-MB-231 cells [2]; MDA-MB-231, eight drug concentrations, 24 hrs) was “did not exhibit toxicity; also recorded: no toxicity detected”.
In the case of `O=C1C(=O)c2cc([N+](=O)[O-])ccc2-c2ccccc21` [NSC5425/ NSC23180, 2-nitrophenanthrene-9,10-dione], the “MTT Assay death” value (MDA-MB-231 cells [2]; @ 10 μM) is reported as 100% death @ 10 μM.
With `O=C1c2ccccc2-c2ccccc2C1(Cl)Cl` [NSC6339/ NSC135154, 10,10-dichlorophenanthren-9-one] the “MTT Assay death” value (MDA-MB-231 cells [2]; @ 2.5 μM) was 100% death @ 2.5 μM.
With `O=C1C(=O)c2cccc([N+](=O)[O-])c2-c2ccccc21` [NSC10204, 4-nitrophenanthrene-9,10-dione] the “MTT Assay death” value (MDA-MB-231 cells [2]; at 100 μM) was 80% death at 100 μM.
With `O=C1C(=O)c2ccccc2-c2ccccc21` [NSC10446/ NSC7389, Phenanthrene-9,10-dione] the “MTT Assay death” value (MDA-MB-231 cells [2]; @ 25 μM) was 100% death @ 25 μM.
In the case of `O=C1C2=C(SCCS2)C(=O)c2ccccc21` [NSC55480, 2,3-dihydrobenzo[g][1,4]benzodithiine-5,10-dione], the “MTT Assay death” value (MDA-MB-231 cells [2]; @ 2.5 μM) is reported as 100% death @ 2.5 μM.
`O=C1C(SCCO)=C(SCCO)C(=O)c2ccccc21` [NSC95397, 2,3-bis(2-hydroxyethylsulfanyl)naphthalene-1,4-dione] was tested, and the EC50 [1, 4] was 7.6 µM, the “covalent modification of S100A4 (mass)” value (wild-type S100A4) was “modification of each monomer at two residues” and the “covalent modification of S100A4 (mass)” value (C81S/C86S S100A4) was “prevented modification”. For the same compound, the “MTT Assay death” value (MDA-MB-231 cells [2]; @ 2.5 μM) was 100% death @ 2.5 μM.
`O=C1C(=O)c2cc(Cl)ccc2-c2ccccc21` [NSC102363, 2-chlorophenanthrene-9,10-dione] was tested, and the “MTT Assay death” value (MDA-MB-231 cells [2]; @ 10 μM) was 100% death @ 10 μM.
`[H]/N=C1\C(=O)c2ccccc2-c2ccccc21` [NSC139152, 10-iminophenanthren-9-one] gave an EC50 [1, 5] of 4.3 µM.
In the case of `CC(=O)c1ccc2c(c1)-c1ccccc1C(=O)C2=O` [NSC400689, 3-acetylphenanthrene-9,10-dione], the “MTT Assay death” value (MDA-MB-231 cells [2]; @ 2.5 μM) is reported as 100% death @ 2.5 μM.
`O=Nc1c(O)c2ccccc2c2ccc([N+](=O)[O-])cc12` [NSC402968] showed an EC50 [1, 5] of 17 µM.
